Read-outs that look alike come from different tables or passages of the source.
Key:
HeLa MKYP cells [1] = test: Human mitophagy assay (HeLa mKeima assay, FACS); format: cell-based
Procedure, shortened: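 HeLa cells carrying the pH-sensitive mtKeima tag incubated 16 h with compound at several concentrations, then 1 uM FCCP/oligomycin for 6 h. FACS detects mitochondria in lysosomes through the Keima emission shift, quantified as percentage of cells in mitophagy.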

HeLa MKYP cells [2] = test: Cell death measured by DAPI staining, with 1 μM FCCP/oligomycin or no toxin (no FO); format: cell-based
Procedure, shortened: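 HeLa MKYP cells were treated with compounds alongside 1 μM FCCP/oligomycin or no toxin for 6 or 6.5 h. Cell death was scored by DAPI staining, with H2O2 treatment as the death control.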

[3] = Homo sapiens, HeLa, read-out: Mitophagy induction EC50
[4] = read-out: Mitophagy induction EC50

Structure (SMILES) | EC50 (HeLa MKYP cells [1]; [3]) | Highest safe dose (cytotoxicity; no FO; safe means DAPI+ <20%) (HeLa MKYP cells [2]; no FO) | Max % death with 1 μM FO (HeLa MKYP cells [2]) | EC50 (HeLa MKYP cells [1]; [4]) | EC50 (HeLa MKYP cells [1]; Homo sapiens, HeLa, HeLa mKeima assay, read-out: Mitophagy EC50 (HeLa mKeima assay)) | Max cell death at 25 μM compound, 1 uM FO (%) (HeLa MKYP cells [2]; 25 μM compound, 1 uM FO) | Cell death at 25 μM (no FO) (%) (HeLa MKYP cells [2]; 25 μM compound, no FO)
CC(=O)N1CCN(C2COc3ccccc3C2Nc2ncnc3[nH]c(C4CC4)cc23)CC1 (racemic) [EP-0041596] | 2.72 µM | 25.0 µM | 15.3% | – | – | – | –
OC[C@H]1CN([C@H]2COc3ccccc3[C@@H]2Nc2ncnc3[nH]c(C(F)(F)F)cc23)CCO1 (single isomer, unassigned) [EP-0041558] | – | 25.0 µM | 10.6% | 1.42 µM | – | – | –
c1ccc2c(c1)OC[C@@H](N1CCOCC1)[C@@H]2Nc1ncnc2[nH]c(C3CC3)cc12 (single isomer, unassigned) [EP-0040181] | > 25 µM | 25.0 µM | 5.9% | – | – | – | –
C[C@@]12COC[C@]1(C)CN(C1COc3ccccc3C1Nc1ncnc3[nH]c(C(F)(F)F)cc13)C2 (stereo partly drawn) [EP-0040524] | 2.68 µM | 25.0 µM | 27.7% | – | – | – | –
c1ccc2c(c1)OC[C@@H](N1CCOCC1)[C@H]2Nc1ncnc2[nH]c(C3CC3)cc12 [EP-0040140] | 8.71 µM | 25.0 µM | 11.1% | – | – | – | –
OC1CC2(C1)CN([C@H]1COc3ccccc3[C@@H]1Nc1ncnc3[nH]c(C(F)(F)F)cc13)C2 (single isomer, unassigned) [EP-0040725] | > 25 µM | 25.0 µM | 3.4% | – | – | – | –
C[C@H]1COCCN1[C@@H]1CCc2ccccc2[C@H]1Nc1ncnc2[nH]c(C(F)(F)F)cc12 (single isomer, unassigned) [EP-0040182] | – | 25.0 µM | 26.8% | 21.2 µM | – | – | –
COC[C@H]1CCCN1[C@H]1COc2ccccc2[C@@H]1Nc1ncnc2[nH]c(C(F)(F)F)cc12 [EP-0041553] | 15.2 µM | 25.0 µM | 5.7% | – | – | – | –
COC1(C)CN(C2COc3ccccc3C2Nc2ncnc3[nH]c(C(F)(F)F)cc23)C1 (single isomer, unassigned) [EP-0041300] | 4.35 µM | 25.0 µM | 11.1% | – | – | – | –
COC1CN([C@@H]2CCc3ccccc3[C@H]2Nc2ncnc3[nH]c(C(F)(F)F)cc23)C1 [EP-0040858] | ≥ 28.8 µM | 25.0 µM | 6.6% | – | – | – | –
FC(F)(F)c1cc2c(N[C@H]3c4ccccc4OC[C@@H]3N3CCOCC3)ncnc2[nH]1 [EP-0040078] | 1.9 µM | 25.0 µM | 18.5% | – | 1.77 µM | 18% | 5.92%
CN1CCN([C@H]2CCc3ccccc3[C@@H]2Nc2ncnc3[nH]c(C(F)(F)F)cc23)CC1 (single isomer, unassigned) [EP-0040578] | 3.54 µM | 25.0 µM | 14.4% | – | – | – | –
C[C@@H]1COCCN1[C@H]1CCc2ccccc2[C@@H]1Nc1ncnc2[nH]c(C3CC3)cc12 (single isomer, unassigned) [EP-0040358] | – | 2.8 µM | 97.8% | > 25 µM | – | – | –
FC(F)(F)c1cc2c(N[C@H]3c4ccccc4OC[C@@H]3N3CCOCC3)ncnc2[nH]1 (single isomer, unassigned) [EP-0040251] | > 25 µM | 25.0 µM | 3.1% | – | – | – | –
C[C@H]1CN([C@H]2COc3cc(F)ccc3[C@@H]2Nc2ncnc3[nH]c(C(F)(F)F)cc23)CCO1 [EP-0040981] | 2.44 µM | 25.0 µM | 7.0% | – | – | – | –
